Columns and labels:
Format in all cases: cell-based, human
[1] = system: caspases 3/7 in HepG2 cells; experiment: Caspase 3/7 green flow cytometry assay, HepG2; settings: HepG2, 48 h; untreated cells 1.32%
From the text: Apoptosis is a form of cell death programmed by the family of cysteine protease. In response to the various cell death stimuli, a large irreversible proteolytic cascade is triggered and subsequently generated. The effector caspase activity has been evaluated to determine the apoptotic pathway initiated by the tested compounds using the “Cell Event™ Caspase 3/7 Green Detection kit”.
(§1) (See supplementary information for the detailed methodology of flow cytometric analyses, including “FITC/Annexin-V-FITC/PI differential apoptosis/necrosis”, “DNA content-flow cytometry aided cell cycle”, and “Caspase 3/7 green flow cytometry”).
Supplementary materials for detailed methodology
2.2.2.1. Flow cytometric analysis
2.2.2.1.1. FITC/Annexin-V-FITC/PI Differential Apoptosis/Necrosis Assessment Apoptosis and necrosis cell populations are determined using Annexin V-FITC apoptosis detection kit (Abcam Inc., Cambridge Science Park, Cambridge, UK) coupled with 2 fluorescent channels flowcytometry. […] After staining, cells are injected via ACEA Novocyte™ flowcytometer (ACEA Biosciences Inc., San Diego, CA, USA) and analyzed for FITC and PI fluorescent signals using FL1 and FL2 signal detector, respectively (λex/em 488/530 nm for FITC and λex/em 535/617 nm for PI). […]
concentration was measured. […]

[2] = system: Liver Cancer HepG2; experiment: MTT cytotoxicity assay, HepG2; settings: Homo sapiens, HepG2, 48 h, read-out: IC50 (µM) ± SEM, Liver Cancer HepG2
Procedure: Cytotoxic activities of the synthesized derivatives were screened against leukemia (HL60), liver (HepG2), breast (MCF-7), and lung (A549) cancer cell lines and non-cancerous THLE2 and WISH cells at different concentrations [0.01–100 µM] for 48 h using the MTT assay (Table 1).
Human promyelocytic leukemia ”HL-60”, human hepatocellular carcinoma “HepG2”, human breast cancer “MCF-7”, human lung cancer “A549” cell lines, and two normal cell lines, THLE-2 as normal adult liver epithelial cells and WISH as normal epithelial cells, were obtained from American Type Culture Collection “Rockville, MD, USA”.
According to the manufacturer’s protocol, the cells were seeded in 96-well plates at a concentration of 5 × 10^4 cells per well (200 µL). Different concentrations of the tested compounds were used to test the cytotoxicity. […] A non-linear regression of curve fit was used to calculate the IC50.

[3] = system: HepG2 cancer cells; experiment: DNA content-flow cytometry cell-cycle analysis, HepG2; settings: HepG2, IC50 = 13.14 μM, 48 h
Procedure: as §1
Supplementary materials for detailed methodology […]
2.2.2.1.2. DNA Content-Flow Cytometry Aided Cell Cycle Analysis
After treatment with test compounds for 48 h, cells (10^5 cells) are collected by trypsinization and washed twice with ice-cold PBS (pH 7.4). Cells are re-suspended in two milliliters of 60% ice-cold ethanol and incubated at 4 °C for 1 h for fixation. Fixed cells are washed twice again with PBS (pH 7.4) and re-suspended in 1 mL of PBS containing 50 μg/mL RNAase A and 10 μg/mL propidium iodide (PI). After 20 min of incubation in dark at 37 C, cells are analyzed for DNA contents using flow cytometry analysis using FL2 (λex/em 535/617 nm) signal detector (ACEA Novocyte™ flowcytometer, ACEA Biosciences Inc., San Diego, CA, USA). For each sample, 12,000 events are acquired. Cell cycle distribution is calculated using ACEA NovoExpress™ software (ACEA Biosciences Inc., San Diego, CA, USA).
2.2.2.1.3. Caspase- 3/7 green flow cytometry assay
The ability of compounds 4 and 9 to induce the enzymatic activities of caspase 3/7 in HL60 and HepG2 respectively were assayed using caspase 3/7 green flow cytometry assay method. Briefly, control and the tested compounds treated cells (2.5x10^5/mL) were rinsed with ice cold PBS, cell lysates were prepared and subsequently protein

[4] = system: P53, Bax, Caspase 3, Caspase 7, PI3k, AKT, and Bcl-2 mRNA in HepG2 cells; experiment: RT-PCR relative mRNA expression of apoptosis-related genes, HepG2; settings: HepG2, IC50 = 13.14 μM, 48 h; versus β-actin; untreated control = 1

## Cc1c(Br)c(=O)oc2c(Br)c(OC(=O)/C=C/c3ccccc3)c(Br)cc12 [Compound 8b, (2E)-3,6,8-Tribromo-4-methyl-2-oxo-2H-chromen-7-yl Cinnamate]
[1]
  Apoptotic cells due to active caspases 3/7: 6.09%
[2]
  IC50: 13.1 ± 0.22 µM
[3]; control 1.71%
  pre-G1 cell population: 12.56%
[3]; control 12.34%
  G2/M cell population: 26.05%
[3]; control 53.6%
  G0/G1 cell population: 42.53%
[4]
  AKT relative mRNA expression: 0.72 fold
  Bax relative mRNA expression: 1.51 fold
  Bcl-2 relative mRNA expression: 0.75 fold
  P53 relative mRNA expression: 3.89 fold
  PI3K relative mRNA expression: 0.75 fold
  caspase 3 relative mRNA expression: 4.63 fold
  caspase 7 relative mRNA expression: 3.63 fold

Reference: article PMC9571264 (Molecules, 2022)
